Earlier results in patent US7713569B2, “Hydroxytyrosol-rich composition from olive vegetation water and method of use thereof” (Creagri, Inc., priority 2000, dated 2010).

Legend:
[1] = test system: various human cellular systems; conditions: Manna et al., 2000
[2] = test system: peroxynitrite dependent DNA base modification and tyrosine nitration; conditions: Deiana et al., 1999
[3] = humans; Visioli et al., 2000
[4] = test system: low density lipoprotein (LDL) oxidation; conditions: Visioli and Galli, 1998
[5] = test system: platelet aggregation; conditions: Petroni et al., 1995
[6] = test system: 12-lipoxygenase; conditions: de la Puerta et al., 1999; Kohyama et al., 1997
[7] = test system: 5-lipoxygenase; conditions: de la Puerta et al., 1999; Kohyama et al., 1997

- absorption following ingestion [3]: dose-dependently absorbed
- inhibition of 12-lipoxygenase [6]: inhibits
- inhibition of 5-lipoxygenase [7]: inhibits
Compound: OCCc1ccc(O)c(O)c1 [hydroxytyrosol, 3,4-dihydroxyphenethyl alcohol]
- cytotoxicity induced by reactive oxygen species [1]: counteracts
- effect on peroxynitrite dependent DNA base modification and tyrosine nitration [2]: inhibitory effect
- LDL oxidation [4]: prevents
- platelet aggregation [5]: prevents
